Columns and labels:
[1] = system: rat stomach fundus smooth muscle; experiment: Inhibition of serotonin-induced contractions of isolated rat stomach fundus smooth muscle; assay type: cell-based, rat (male Wistar); conditions: 5-HT 10^-7 M, 37° C., read-out: Inhibition of 5-HT-evoked contractions of isolated rat stomach fundus, IC50
Protocol: The experiments were performed on male Wistar rats weighing 350 to 400 g. The animals were fasted for 24 hours before the experiments, however, they were allowed to drink tap water ad libitum. The method used was a modified version of Vane et al. /J. Pharmac. Chemother., 12, 344 (1957)/. The rats were killed by decapitation and their stomach was removed, and 3 mm wide and 20 to 30 mm long strips were cut in parallel with the greatest curvature of the stomach. The strips were incubated for 60 minutes in a 6 ml Lucite chamber filled with Tyrode solution (NaCl 136.9 mM, KCl2.7 mM, CaCl2 1.8 mM, MgCl2 1.0 mM, NaHCO3 11.9 mM, glucose 5.6 mM, NaH2 PO4 0.4 mM) warmed to 37° C. and bubbled with a gas consisting of 95% of oxygen and 5% of carbon dioxide. The strips were stretched with 0.5 g during the 60 minutes equilibration time and were washed every 20 minutes. The tension was measured isometrically by a strain gauge (Hugo Sachs) and was recorded on a Graphtech Mark VII 3101 polygraph.
Three control contractions were evoked by 5-HT added to the bath in 10^-7 M concentration (C1, C2, C3).
The effects of the test compounds were determined in 5 increasing concentrations (T2, T3, T4, T5, and T6). After determining the effect of two concentrations of the test compounds, the control 5-HT response was checked after each test measurement.
(§1) IC50 was calculated by nonlinear curve fitting of the inhibitory effect of increasing concentrations of the test compound.

5-HT2C receptor = target: T1, 5-HT2C receptor (Sus scrofa, UniProt K7GSR7); experiment: 5-HT2C receptor binding ([3H]mesulergine, pig brain choroid plexus membrane preparation); conditions: tritiated mesulergine, 37° C., read-out: Inhibition of receptor binding of the radioactive ligand, 5-HT2C (Ki)
T1 construct: pig brain choroid plexus membrane preparation; from tissue; host or cells: pig brain choroid plexus membrane preparation
T1 sequence (K7GSR7 1-457): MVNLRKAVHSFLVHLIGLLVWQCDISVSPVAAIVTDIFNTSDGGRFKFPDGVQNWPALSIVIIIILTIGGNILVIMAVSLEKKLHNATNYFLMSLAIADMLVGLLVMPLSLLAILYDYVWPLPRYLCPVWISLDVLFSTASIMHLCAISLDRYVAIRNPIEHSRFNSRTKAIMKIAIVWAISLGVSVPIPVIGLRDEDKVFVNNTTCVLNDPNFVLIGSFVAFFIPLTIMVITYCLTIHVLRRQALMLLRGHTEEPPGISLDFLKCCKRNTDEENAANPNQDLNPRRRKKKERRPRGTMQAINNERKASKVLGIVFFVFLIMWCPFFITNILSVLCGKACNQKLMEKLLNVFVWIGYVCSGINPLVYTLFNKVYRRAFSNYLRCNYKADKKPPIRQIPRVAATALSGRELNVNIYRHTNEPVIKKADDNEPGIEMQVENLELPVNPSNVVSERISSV
Protocol: (§2) 5-HT2A and 5-HT2C receptor binding was measured according to the methods described by Leysen et al. /Mol. Pharmacol., 21, 301 (1981)/ and Pazos et al. /Eur. J. Pharmacol., 106, 539 (1985)/, respectively. 5-HT2A receptor binding was measured in rat brain frontal cortex membrane preparation using tritiated ketanserine /3-/2-(4-fluorobenzoyl)- -1-piperidinyl/ethyl-2,4-(1H,3H)-quinazoline-dione/(60-90 Ci/mmole) as ligand. 5-HT2C receptor binding was measured in pig brain choroid plexus membrane preparation using tritiated mesulergine /N'-/(8)-1,6-dimethyl-ergoline-8-yl/-N,N-dimethylsulfamide (70-85 Ci/mmole) as the ligand. Non-specific binding to 5-HT2A and 5-HT2C receptors were determined in the presence of 10 micro M cyproheptadine/4-(5H-dibenzo/a,d/cycloheptene-5-ylidene)-1-methylpiperidine/ and 1 micro M mianserine/1,2,3,4,10,14b-hexahydro-2-methyldibenzo-/c,f/pyrazino/1,2-a/azepine/, respectively. The final incubation volumes were 250 and 1000 microlitres. Samples were incubated for 15 and 30 minutes at 37° C. Incubation was stopped by adding 9 ml of ice-cold 50 mM tris(hydroxymethyl)-aminomethane hydrochloride (pH=7.7) to the reaction mixture. The samples were rapidly filtered through Whatman GF/B glass fiber filters using reduced pressure. Before use, the filters were soaked in a 0.05% poly-ethyleneimine solution for 2 to 3 hours. Radioactivity of the filters was determined by a scintillation spectrometer.

5-HT2A receptor [2] = target: T2, 5-HT2A receptor (Rattus norvegicus, UniProt P14842); experiment: 5-HT2A receptor binding ([3H]ketanserine, rat brain frontal cortex membrane preparation); conditions: tritiated ketanserine, 37° C., read-out: Inhibition of receptor binding of the radioactive ligand, 5-HT2A (Ki)
T2 construct: rat brain frontal cortex membrane preparation; from tissue; host or cells: rat brain frontal cortex membrane preparation
T2 sequence (P14842 whole entry): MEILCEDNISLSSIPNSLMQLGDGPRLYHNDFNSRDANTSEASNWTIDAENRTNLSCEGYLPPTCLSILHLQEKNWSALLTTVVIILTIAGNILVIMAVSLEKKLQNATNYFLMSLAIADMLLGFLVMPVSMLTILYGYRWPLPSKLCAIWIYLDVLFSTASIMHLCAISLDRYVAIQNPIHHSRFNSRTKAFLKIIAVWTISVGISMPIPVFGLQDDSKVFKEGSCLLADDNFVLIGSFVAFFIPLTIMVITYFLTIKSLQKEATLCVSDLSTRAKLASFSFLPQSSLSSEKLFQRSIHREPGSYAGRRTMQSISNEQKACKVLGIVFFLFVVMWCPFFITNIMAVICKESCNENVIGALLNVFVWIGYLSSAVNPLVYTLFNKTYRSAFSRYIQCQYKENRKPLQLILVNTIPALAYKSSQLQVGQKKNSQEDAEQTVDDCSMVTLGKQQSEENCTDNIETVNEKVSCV
Protocol: as §2

5-HT2A receptor [3] = target: T3, 5-HT2A receptor (Oryctolagus cuniculus, UniProt G1SYA7); experiment: 5-HT2A receptor antagonistic effect: inhibition of 5-HT-evoked contractions on isolated rabbit aortic strips; assay type: cell-based, rabbit (New-Zealand, male, white); conditions: 5-HT 10^-6 M; phenoxybenzamine 10^-8 M; tranylcypramine 10^-7 M; 10 minutes incubation
T3 construct: The thoracic aorta segment after the aortic arch was removed; from tissue; host or cells: rabbit thoracic aorta, helical strips
T3 sequence (G1SYA7 1-469): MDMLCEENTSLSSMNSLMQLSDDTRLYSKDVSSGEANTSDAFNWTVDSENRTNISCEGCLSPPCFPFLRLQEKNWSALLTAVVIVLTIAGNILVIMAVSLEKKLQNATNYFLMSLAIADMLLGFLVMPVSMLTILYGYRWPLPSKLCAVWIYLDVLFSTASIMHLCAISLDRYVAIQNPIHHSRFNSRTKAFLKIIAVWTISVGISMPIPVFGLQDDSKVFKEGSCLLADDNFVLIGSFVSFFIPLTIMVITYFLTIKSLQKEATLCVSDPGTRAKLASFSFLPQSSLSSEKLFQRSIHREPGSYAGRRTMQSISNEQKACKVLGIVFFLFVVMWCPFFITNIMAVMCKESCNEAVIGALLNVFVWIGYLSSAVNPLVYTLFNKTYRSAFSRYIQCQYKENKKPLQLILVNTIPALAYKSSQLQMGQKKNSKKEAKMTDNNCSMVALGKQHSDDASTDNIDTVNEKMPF
Protocol: New-Zealand, male, white rabbits weighing 2.0 to 2.5 kg were killed by a blow on the head. The thoracic aorta segment after the aortic arch was removed and placed into a Krebs' solution (NaCl 118 mM, KCl 4.6 mM, NaHCO3 25 mM, glucose 10.5 mM, […] 1 mM, KH2PO4 1 mM, CaCl2 2.6 mM). The aorta was carefully cleaned from fat and connective tissue, and was cut into 3 mm wide and 30 mm long helical strips. Four strips were obtained from each rabbit. The strips were equilibrated at 37° C. for 60 minutes in an organ chamber filled with Krebs' solution. The strips were also oxygenated by bubbling carbogen gas (5% of carbon dioxide and 95% of oxygen) through the solution. The strips were stretched by 1 g tension.
The contractions were measured by a Hugo Sachs K-30 type strain gauge, and were registered on a Multicorder type polygraph. During the last 40 minutes of the equilibration, the MAO enzym inhibitor tranylcypramine (10^-7 M) /chemical name: (±)-trans-2-phenylcyclopropylamine/ was also added to the bath.
Any alpha-adrenergic effects of the test compounds were eliminated by 10^-8 M of phenoxybenzamine /N-(2-chloroethyl)-N-(1-methyl-2-phenoxyethyl)benzylamine/ /Clancy et al., J. Pharm. Exp. Ther., 233, 761 (1985). Testing of the serotonergic antagonistic effect was started at the 90th minute of incubation. The stability and reproducibility of the contractile response of the aortic strips to serotonin was tested by two consecutive application and wash-out procedures of 10^-6 M concentration of 5-HT, 40 minutes apart. […] 30 minutes after the second testing, a preset concentration of the test compound was added to the bath, and, after a 10 minutes incubation time, the response to 10^-6 M of 5-HT was determined in the presence of the compound to be tested.
Two different concentrations of a given compound were tested on each aortic strip by the above method. Reproducibility of the control 5-HT-evoked response was checked between testing the two concentrations of the compound.
as §1

human anxiety = conditions: cited from earlier work

| SMILES | IC50 [1] | Ki (5-HT2C receptor) | Ki (5-HT2A receptor [2]) | IC50 (5-HT2A receptor [3]) | effectiveness for the treatment of different forms of human anxiety (human anxiety) |
| --- | --- | --- | --- | --- | --- |
| Nc1nc(SCCN2CCN(Cc3ccc([N+](=O)[O-])cc3)CC2)nc(N)c1Cc1ccc(Br)cc1 [Example 64, 2-[2-/4-(4-Nitrobenzyl)-1-piperazinyl/-ethylthio]-4,6-diamino-5-(4-bromo-benzyl)pyrimidine] | 0.68 µM |  |  |  |  |
| COc1ccc(Cc2c(N)nc(SCCN3CCN(Cc4ccccc4Cl)CC3)nc2N)cc1 [Example 72, 2-[2-/4-(2-Chlorobenzyl)-1-piperazinyl/-ethylthio]-4,6-diamino-5-(4-methoxy-benzyl)pyrimidine] |  | 0.02 µM | 0.024 µM | 0.084 µM |  |
| Cc1nc2sccn2c(=O)c1CCN1CCC(=C(c2ccc(F)cc2)c2ccc(F)cc2)CC1 [ritanserin, 6-[2-14-bis(4-fluorophenyl)methylene/-1-piperidinyl-ethyl]-7-7-methyl-5H-thiazolo/3,2-a/pirimidine-5-one] |  |  |  |  | effective for the treatment of different forms of human anxiety |
| Nc1cc(N)nc(SCCN2CCN(Cc3ccc(F)cc3)CC2)n1 [Example 3, 2-[2-/4-(4-Fluorobenzyl)-1-piperazinyl/-ethylthio]-7-4,6-diaminopyrimidine] |  | > 0.1 µM | 0.058 µM | 0.96 µM |  |
| COc1ccc(Cc2c(N)nc(SCCN3CCN(Cc4cccc(C#N)c4)CC3)nc2N)cc1 [Example 26, 2-[2-/4-(3-Cyanobenzyl)-1-piperazinyl/-ethylthio]-4,6-diamino-5-(4-methoxybenzyl)-pyrimidine] |  | 0.045 µM | 0.048 µM | 0.26 µM |  |
| CN(C)c1ccc(Cc2c(N)nc(SCCN3CCN(Cc4ccc([N+](=O)[O-])cc4)CC3)nc2N)cc1 [Example 57, 2-[2-/4-(4-Nitrobenzyl)-1-piperazinyl/-ethylthio]-4,6-diamiiino-5-(4-dimethylamino-benzyl)pyrimidine] | 0.89 µM | 0.042 µM | > 0.1 µM | 0.89 µM |  |
| COc1ccc(Cc2c(N)nc(SCCN3CCN(Cc4ccccc4C)CC3)nc2N)cc1 [Example 24, 2-[2-/4-(2-Methylbenzyl)-1-piperazinyl/-ethylthio]-4,6-diamino-5-(4-methoxybenzyl)-pyrimidine] |  | 0.022 µM | 0.018 µM | 0.24 µM |  |
| COc1ccc(Cc2c(N)nc(SCCN3CCN(Cc4ccccc4)CC3)nc2N)cc1 [Example 22, 2-/2-(4-Benzyl-1-piperazinyl)ethylthio/-4,6-diamino-5-(4-methoxybenzyl)pyrimidine] | 0.32 µM | > 0.1 µM | 0.056 µM | 0.42 µM |  |
| COc1ccc(Cc2c(N)nc(SCCN3CCN(Cc4ccccc4F)CC3)nc2N)cc1 [Example 25, 2-[2-/4-(2-Fluorobenzyl)-1-piperazinyl/-ethylthio]-4,6-diamino-5-(4-methoxybenzyl)-pyrimidine] |  | > 0.1 µM | 0.02 µM | 0.28 µM |  |
| COc1cccc(CN2CCN(CCSc3nc(N)c(Cc4ccccc4Cl)c(N)n3)CC2)c1 [Example 44, 2-[2-/4-(3-Methoxybenzyl)-1-piperazinyl/-ethylthio]-4,6-diamino-5-(2-chlorobenzyl)-pyrimidine] |  | > 0.1 µM | 0.093 µM | 0.65 µM |  |
| Nc1nc(SCCN2CCN(Cc3ccc([N+](=O)[O-])cc3)CC2)nc(N)c1Cc1ccc(F)cc1 [Example 20, 2-[2-/4-(4-Nitrobenzyl)-1-piperazinyl/-ethylthio]-4,6-diamino-5-(4-fluorobenzyl)-pyrimidine] | 0.56 µM | > 0.1 µM | 0.203 µM | 1.5 µM |  |
| Nc1nc(SCCN2CCN(Cc3ccc([N+](=O)[O-])cc3)CC2)nc(N)c1Cc1ccc(Cl)cc1 [Example 48, 2-[2-/4-(4-Nitrobenzyl)-1-piperazinyl/-ethylthio]-4,6-diamino-5-(4-chlorobenzyl)-pyrimidine] | 0.42 µM |  |  |  |  |
| COc1cccc(CN2CCN(CCSc3nc(N)c(Cc4ccccc4OC)c(N)n3)CC2)c1 [Example 31, 2-[2-/4-(3-Methoxybenzyl)-1-piperazinyl/-ethylthio]-4,6-diamino-5-(2-methoxybenzyl)-pyrimidine] |  | 0.021 µM | > 0.1 µM | 0.73 µM |  |
| CN(C)c1ccc(Cc2c(N)nc(SCCN3CCN(Cc4ccccc4F)CC3)nc2N)cc1 [Example 53, 2-[2-/4-(2-Fluorobenzyl)-1-piperazinyl/-ethylthio]-4,6-diamino-5-(4-dimethylamino-benzyl)pyrimidine] |  | > 0.1 µM | 0.015 µM | 0.47 µM |  |
| COc1cc(Cc2c(N)nc(SCCN3CCN(Cc4cccc(C(F)(F)F)c4)CC3)nc2N)cc(OC)c1OC [Example 69, 2-[2-/4-(3-Trifluoromethylbenzyl)-1-piperazinyl/ethylthio]-4,6-diamino-5-(3,4,5-trimethoxybenzyl)pyrimidine] |  | 0.026 µM | 0.038 µM | 0.096 µM |  |
| Nc1nc(SCCN2CCN(Cc3ccc([N+](=O)[O-])cc3)CC2)nc(N)c1Cc1ccccc1 [Example 14, 2-[2-/4-(4-Nitrobenzyl)-1-piperazinyl/-ethylthio]-4,6-diamino-5-benzylpyrimidine] |  | > 0.1 µM | 0.078 µM | 6 µM |  |

Reference: US6130215A, “Piperazinylalkylthiopyrimidine derivatives, pharmaceutical compositions containing the same and a process for the preparation of the novel compounds” (Egis Gyoyszergyar RT, priority 1995, dated 2000)
